From patent US5948913A, “Hydrate for drug use” (Daiichi Pharmaceutical Co., Ltd., priority 1994, dated 1999)
pIC50: −log10 of the molar value. Where a name gives a salt, the structure may show the parent alone. Read-outs that look alike come from different tables or passages of the source.

Legend:
[1] = Weight / moisture change as a function of humidity; format: physicochemical
Method: On the other hand, when methanol was used as the solvent at the time of crystal precipitation, the thus obtained hydrochloride anhydrate of the compound of formula (1) also contained methanol, but it was able to remove the contained methanol almost completely when the crystals were dried with heating (120° C.) under a reduced pressure for several days or more.
(§1) (FIG. 2). Also, changes in its appearance were hardly found and its changes in the content (determination by HPLC) were not found under dry heating conditions (50° C., tightly sealed in a bottle, 1 month) or wet heating conditions (40° C., 75% humidity, 1 month).
FIG. 1 is a graph showing changes in the weight of 3-[2-[4-(3-chloro-2-methylphenyl)-1-piperazinyl]ethyl]-5,6-dimethoxy-1-(4- imidazolylmethyl)-1H-indazole hydrochloride anhydrate plotted as a function of humidity,
FIG. 2 is a graph showing changes in the weight of the 3.5-hydrate of the present invention plotted as a function of humidity, […]

[2] = Storage stability under dry heating and wet heating conditions; format: physicochemical
Method: as §1

[3] = molecular target: calmodulin-dependent phosphodiesterase (PDE); assay: Calmodulin inhibition action (calmodulin-dependent phosphodiesterase inhibition); format: biochemical; conditions: CaM and CaM-PDE of bovine brain origin, [3H]-cGMP, 30° C., 10 minutes; read-out: PDE inhibition effect, IC50
[4] = system: rhesus monkeys; assay: Central nervous inhibition actions; format: in vivo, rhesus monkey; conditions: 10 mg/kg intravenous injection
Method: (§2) Particularly serious actions upon hemodynamics and electrocardiogram were not observed in dogs, and significant central nervous inhibition actions were not observed in rhesus monkeys even when a dose of 10 mg/kg was administered by intravenous injection.

[5] = in vivo
Method: (§3) With regard to the toxicity, its oral single administration toxicity was 200 mg/kg or more, and serious side effects were not observed in rats by repeated oral administration toxicity test over 10 days and repeated intravenous injection toxicity test over 10 days.

[6] = system: rats; conditions: rat, in vivo
Method: as §3

[7] = system: dogs; assay: Actions upon hemodynamics and electrocardiogram; format: in vivo, dog
Method: as §2

[8] = system: hippocampus CA1 nerve cells; assay: Changes in hippocampus nerve cells in cerebral ischemia model; format: in vivo; conditions: jird, 5 minutes cerebral ischemia, 100 mg/kg oral 1 hour after ischemia loading
Method: When transient cerebral ischemia is loaded on a jird, hippocampus nerve cells start to get necrosis several days thereafter, and such a change is called delayed nerve cell death. The following test was carried out in accordance with the method of T. Kirino (Brain Res., 239, 57-69 (1982)). That is, each jird was loaded with 5 minutes of cerebral ischemia and then sacrificed to count the number of nerve cells remained in the hippocampus CA1 region.

[9] = system: rat microsphere cerebral embolus model; assay: Anti-edema effect in rat microsphere cerebral embolus model; format: in vivo; conditions: 8 hr, intravenous infusion, 24 hours after operation
Method: This test was carried out in accordance with the method of Nobutaka Demura et al. (Neuroscience Res., 17, 23-30 (1983)).
Under halothane anesthesia, a Slc;Wis rat (about 300 g) which has been treated with caudal vein cannulation in advance was subjected to neck incision to tear off the left side common carotid artery. Wing process palate artery and external carotid artery on the same side were also torn off and subjected to artery clipping. Carbon microspheres (50±10 μm in diameter) were suspended in 20% dextran and injected into the left side common carotid artery to effect dispersion of the microspheres in the left cerebral hemisphere via the left internal carotid artery, the common carotid artery was immediately clipped to stop bleeding from the microsphere-injected part, and then the artery clip was removed to restart blood circulation. Thereafter, each drug solution was continuously injected using an infusion pump from the catheter which has been inserted into caudal vein.
Each animal was sacrificed by decapitation 24 hours after the operation, and the brain was excised immediately after the decapitation to measure wet weights of both left and right hemispheres. Each tissue was then dried overnight at 150° C. to measure its dry weight and to calculate water content of each hemisphere.
As a control group, a vehicle group (20% dextran only) was arranged and treated in the same manner.

[10] = system: mouse nitrogen-loaded hypoxia model; assay: Mouse nitrogen-loaded hypoxia model; format: in vivo; conditions: mice, 30 mg/kg oral, 60 minutes before nitrogen gas feeding
Method: This test was carried out in accordance with the method of Albert Wauquier et al. (Japan J. Pharmacol., 38, 1-7 (1985)).
A total of 9 to 10 mice were used in 1 group, and each animal 60 minutes after oral administration of a drug to be tested (30 mg/kg) was put into a transparent container (500 ml capacity) equipped with an air outlet and then the container was fed with nitrogen gas at a rate of 5.0 L/min. The period of time from the commencement of gas feeding until respiratory arrest was measured.

[11] = dry heating conditions (50° C., tightly sealed in a bottle, 1 month)
[12] = wet heating conditions (40° C., 75% humidity, 1 month)

## COc1cc2c(CCN3CCN(c4cccc(Cl)c4C)CC3)nn(Cc3c[nH]cn3)c2cc1OC [Inventive Example 2, 3-[2-[4-(3-Chloro-2-methylphenyl)-1-piperazinyl]ethyl]-5,6-dimethoxy-1-(4-imidazolylmethyl)-1H-indazole 1.5-hydrochloride (anhydrous crystals)]
[1]; room temperature, anhydrate after removal of methanol, FIG. 1
  moisture absorption in response to environmental humidity: absorb moisture in response to the environmental humidity

## COc1cc2c(CCN3CCN(c4cccc(Cl)c4C)CC3)nn(Cc3c[nH]cn3)c2cc1OC [Inventive Example 3, 3-[2-[4-(3-Chloro-2-methylphenyl)-1-piperazinyl]ethyl]-5,6-dimethoxy-1-(4-imidazolylmethyl)-1H-indazole dihydrochloride 3.5-hydrate]
[1]; relative humidity changed from about 20% to about 80% at 25° C., FIG. 2
  changes in powder X-ray diffraction pattern or detectable water content: did not show changes
[2]; [11]
  changes in appearance: hardly found
  changes in the content (determination by HPLC): not found
[2]; [12]
  changes in appearance: hardly found
  changes in the content (determination by HPLC): not found

## COc1cc2c(CCN3CCN(c4cccc(Cl)c4C)CC3)nn(Cc3c[nH]cn3)c2cc1OC [compound of the present invention, 3-[2-[4-(3-chloro-2-methylphenyl)-1-piperazinyl]ethyl]-5,6-dimethoxy-1-(4-imidazolylmethyl)-1H-indazole]
[3]
  pIC50: 5.26
[4]
  significant central nervous inhibition actions: not observed
[5]
  oral single administration toxicity: ≥ 200 mg/kg
[6]; iv
  serious side effects: not observed
[6]; po
  serious side effects: not observed
[7]
  particularly serious actions upon hemodynamics and electrocardiogram: not observed
[8]
  protecting effect against nerve cell death: distinct protecting effect
[8]; CA1 region
  Hippocampus Nerve Cell Density: 131 ± 21.2 cells/mm
[9]; dose 1 mg/kg/hr
  Water content, Control Side (right hemisphere): 78.8 ± 0.1%
  Water content, Disease Side (left hemisphere): 80.1 ± 0.4%
[9]; dose 2 mg/kg/hr
  Water content, Control Side (right hemisphere): 78.7 ± 0.1%
  Water content, Disease Side (left hemisphere): 79.8 ± 0.3%
[10]
  increasing ratio of time until respiratory arrest (control group defined as 100%): 15.1%
